# How the values were obtained:
# Settings in all cases: human, ipsc-cm
# [1] = (§1) Electrical activity assay on cell lines treated with a given drug. DMSO was used as a vehicle and a control, unblinded dofetilide was used as a control.; format: ADME, cell-based; parameters: FPDc: unit not given here
# [2] = as §1
# [3] = as §1; remark: listed apart in the source
# [4] = as §1; remark: listed apart in the source
# [5] = as §1; format: ADME, cell-based
# [6] = as §1; format: ADME, cell-based; remark: listed apart in the source
# [7] = 0.1 µM, concentration (um) 0.1 uM
# [8] = 0.001 µM, concentration (um) 0.001 uM
# [9] = 0.01 µM, concentration (um) 0.01 uM
smiles,measurement,setting,value
Cc1cccc(C)c1OCC(C)N (stereo unspecified) [MEXILETINE],FPDc,[1]; [7],43.08
same,FPDc,"[1]; 1 µM, concentration (um) 1 uM",54.07
same,FPDc,"[1]; 10 µM, concentration (um) 10 uM",64.26
same,FPDc,"[1]; 100 µM, concentration (um) 100 uM",63.72
same,APDc,[2]; 0.1 µM,53
same,FPD measurement,[2]; 0.1 µM,53 FPDc
same,APDc,[2]; 1 µM,57.83
same,FPD measurement,[2]; 1 µM,57.83 FPDc
same,APDc,[2]; 10 µM,63.09
same,FPD measurement,[2]; 10 µM,63.09 FPDc
same,APDc,[2]; 100 µM,74.46
same,FPD measurement,[2]; 100 µM,74.46 FPDc
same,FPDc,[3]; 0.1 µM,67.46
same,FPDc,[3]; 1 µM,77.46
same,FPDc,[3]; 10 µM,87.68
same,FPDc,[3]; 100 µM,95.17
same,FPD measurement,[4]; 0.1 µM,1 Values Out Of 1 Were Excluded Due To Quiescence Or 0 Fpdc
same,FPDc,[4]; 0.1 µM,1 Values Out Of 1 Were Excluded Due To Quiescence Or 0 Fpdc
same,FPD measurement,[4]; 1 µM,1 Values Out Of 1 Were Excluded Due To Quiescence Or 0 Fpdc
same,FPDc,[4]; 1 µM,1 Values Out Of 1 Were Excluded Due To Quiescence Or 0 Fpdc
same,FPD measurement,[4]; 10 µM,1 Values Out Of 1 Were Excluded Due To Quiescence Or 0 Fpdc
same,FPDc,[4]; 10 µM,1 Values Out Of 1 Were Excluded Due To Quiescence Or 0 Fpdc
same,FPD measurement,[4]; 100 µM,1 Values Out Of 1 Were Excluded Due To Quiescence Or 0 Fpdc
same,FPDc,[4]; 100 µM,1 Values Out Of 1 Were Excluded Due To Quiescence Or 0 Fpdc
CC(C)(C)c1ccc(C(O)CCCN2CCC(C(O)(c3ccccc3)c3ccccc3)CC2)cc1 (stereo unspecified) [TERFENADINE],FPD measurement,[5]; [8],48.77 FPDc
same,FPDc,[5]; [8],6 Values Out Of 6 Were Excluded Due To Quiescence Or 0 Fpdc
same,FPD measurement,[5]; [9],52.11 FPDc
same,FPDc,[5]; [9],6 Values Out Of 6 Were Excluded Due To Quiescence Or 0 Fpdc
same,FPD measurement,[5]; [7],71.18 FPDc
same,FPDc,[5]; [7],6 Values Out Of 6 Were Excluded Due To Quiescence Or 0 Fpdc
same,FPDc,"[5]; 1 µM, concentration (um) 1 uM",6 Values Out Of 6 Were Excluded Due To Quiescence Or 0 Fpdc
same,FPDc,[3]; 0.001 µM,67.41
same,FPDc,[3]; 0.01 µM,65.79
same,FPDc,[3]; 0.1 µM,66.77
same,FPDc,[3]; 1 µM,63.51
same,FPD measurement,[6]; [8],5 Values Out Of 5 Were Excluded Due To Quiescence Or 0 Apdc
same,FPDc,[6]; [8],20.04
same,FPD measurement,[6]; [9],5 Values Out Of 5 Were Excluded Due To Quiescence Or 0 Apdc
same,FPDc,[6]; [9],19.19
same,FPD measurement,[6]; [7],5 Values Out Of 5 Were Excluded Due To Quiescence Or 0 Apdc
same,FPDc,[6]; [7],20.37
same,FPD measurement,"[6]; 1 µM, concentration (um) 1 uM",5 Values Out Of 5 Were Excluded Due To Quiescence Or 0 Apdc
same,FPDc,"[6]; 1 µM, concentration (um) 1 uM",19.11
same,FPD measurement,[4]; 0.001 µM,1 Values Out Of 1 Were Excluded Due To Quiescence Or 0 Fpdc
same,FPDc,[4]; 0.001 µM,1 Values Out Of 1 Were Excluded Due To Quiescence Or 0 Fpdc
same,FPD measurement,[4]; 0.01 µM,1 Values Out Of 1 Were Excluded Due To Quiescence Or 0 Fpdc
same,FPDc,[4]; 0.01 µM,1 Values Out Of 1 Were Excluded Due To Quiescence Or 0 Fpdc
same,FPD measurement,[4]; 0.1 µM,1 Values Out Of 1 Were Excluded Due To Quiescence Or 0 Fpdc
same,FPDc,[4]; 0.1 µM,1 Values Out Of 1 Were Excluded Due To Quiescence Or 0 Fpdc
same,FPD measurement,[4]; 1 µM,1 Values Out Of 1 Were Excluded Due To Quiescence Or 0 Fpdc
same,FPDc,[4]; 1 µM,1 Values Out Of 1 Were Excluded Due To Quiescence Or 0 Fpdc

# Reference: ChEMBL document CHEMBL4295262, “Evaluation of the utility of stem-cell derived cardiomyocytes for drug proarrhythmic potential” (2019)
